Assay [1] deals with T1, purified wild type MGL (wt-MGLL 6H-11-313) (Homo sapiens, UniProt Q99685).
T1 construct: purified wild type MGL (wt-MGLL 6H-11-313)
T1 sequence (Q99685 1-303): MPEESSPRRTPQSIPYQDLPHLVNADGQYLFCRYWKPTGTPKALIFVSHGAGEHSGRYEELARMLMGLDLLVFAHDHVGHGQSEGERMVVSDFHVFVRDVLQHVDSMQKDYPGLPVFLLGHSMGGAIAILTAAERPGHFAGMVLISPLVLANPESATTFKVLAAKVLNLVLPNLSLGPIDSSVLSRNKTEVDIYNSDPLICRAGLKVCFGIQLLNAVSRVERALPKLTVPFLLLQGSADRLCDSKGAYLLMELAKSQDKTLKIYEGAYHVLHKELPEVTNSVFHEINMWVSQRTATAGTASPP
In words: MGL enzyme activity assay (4MU-B cleavage), wild type MGL. The assay is classed as biochemical. To be noted: wild type MGL 5 nM, 4MU-B 10 μM, 37° C.; read-out: MGL wild type inh IC50. The method, then:
All rate-based assays were performed in black 384-well polypropylene PCR microplates (Abgene) in a total volume of 30 μL. Substrate 4-methylumbelliferyl butyrate (4MU-B; Sigma) and either purified mutant MGL (mut-MGLL 11-313 L179S L186S) or purified wild type MGL (wt-MGLL 6H-11-313) were diluted separately into 20 mM PIPES buffer (pH=7.0), containing 150 mM NaCl and 0.001% Tween 20. Compounds of Formula (I) were pre-dispensed (50 nL) into the assay plate using a Cartesian Hummingbird prior to adding 4MU-B (25 μL of 1.2× solution to a final concentration of 10 μM) followed by enzyme (5 μL of a 6× solution to a final concentration of 5 nM) to initiate the reaction. Final compound concentrations ranged from 17 to 0.0003 μM. The fluorescence change due to 4MU-B cleavage was monitored with excitation and emission wavelengths of 335 and 440 nm, respectively, and a bandwidth of 10 nm (Safire^2, Tecan) at 37° C. for 5 min.
The IC50 values for the following compounds were determined using Microsoft Office Excel from a fit of the equation to the concentration-response plot of the fractional activity as a function of inhibitor concentration.

Assay [2] has as its system MGL (rat brain homogenate). In words: 2-AG accumulation assay in rat brain homogenate. The settings on record: compound 1 μM, percent of vehicle 2-AG accumulation. The format is biochemical. The method, then:
After a 15-min incubation time at 37° C., CaCl2 (final concentration=10 mM) was added and then incubated for 15 min at 37° C. in a total volume of 5 mL. The reactions were stopped with 6 mL organic solvent extraction solution of 2:1 chloroform/methanol. Accumulated 2-AG in the organic phase was measured by a HPLC/MS method, according to the following equation: percent vehicle=(2-AG accumulation in the presence of compound/2-AG accumulation in vehicle)×100.

SMILES strings stand for the structures.

The term IC50 denotes the concentration needed to halve the response being measured. In the case of `O=C(c1cscn1)N1CC[C@H](NC2CN(C(=O)c3sc4ccc(-c5ccc(C(F)(F)F)cc5)cc4c3F)C2)C1` [Cpd 175, (3S)-N-[1-({3-Fluoro-5-[4-(trifluoromethyl)phenyl]-1-benzothiophen-2-yl}carbonyl)azetidin-3-yl]-1-(1,3-thiazol-4-ylcarbonyl)pyrrolidin-3-amine], the IC50 in assay [1] was below 0.005 µM. Besides, the “Rat Brain 2AG % VehCntrl (%) @1 μM” value in assay [2] is 734%.
As for `Cn1cc(-c2ccc(F)cc2)c2ccc(C(=O)N3CC(N[C@H]4CCN(C(=O)c5ccccc5)C4)C3)cc21` [Cpd 194, (3S)-N-(1-{[3-(4-Fluorophenyl)-1-methyl-1H-indol-6-yl]carbonyl}azetidin-3-yl)-1-(phenylcarbonyl)pyrrolidin-3-amine], in assay [1], the IC50 was 0.0449 µM. In assay [2], the “Rat Brain 2AG % VehCntrl (%) @1 μM” value is 178%.
`O=C(c1nccs1)N1CC[C@H](NC2CN(C(=O)c3sc4cc(-c5cccc(C(F)(F)F)c5)ccc4c3Cl)C2)C1` [Cpd 148, (3S)-N-[1-({3-Chloro-6-[3-(trifluoromethyl)phenyl]-1-benzothiophen-2-yl}carbonyl)azetidin-3-yl]-1-(1,3-thiazol-2-ylcarbonyl)pyrrolidin-3-amine]: the IC50 in assay [1] is below 0.005 µM. Besides, the “Rat Brain 2AG % VehCntrl (%) @1 μM” value in assay [2] was 942%.
Consider `O=C(c1cscn1)N1CC[C@H](NC2CN(C(=O)c3cc4cc(-c5cccc(C(F)(F)F)c5)ccc4s3)C2)C1` [Cpd 130, (3S)-1-(1,3-Thiazol-4-ylcarbonyl)-N-[1-({5-[3-(trifluoromethyl)phenyl]-1-benzothiophen-2-yl}carbonyl)azetidin-3-yl]pyrrolidin-3-amine], for which the 50% inhibitory concentration (IC50) in assay [1] is below 0.005 µM. In addition, the “Rat Brain 2AG % VehCntrl (%) @1 μM” value in assay [2] is recorded as 747%.
As to `Cn1cc(-c2ccc(C(F)(F)F)cc2)c2ccc(C(=O)N3CC(N[C@H]4CCN(C(=O)c5nccs5)C4)C3)cc21` [Cpd 163, (3S)-N-[1-({1-Methyl-3-[4-(trifluoromethyl)phenyl]-1H-indol-6-yl}carbonyl)azetidin-3-yl]-1-(1,3-thiazol-2-ylcarbonyl)pyrrolidin-3-amine], the half-inhibitory concentration (IC50) in assay [1] was determined as 0.0107 µM. In addition, the “Rat Brain 2AG % VehCntrl (%) @1 μM” value in assay [2] worked out at 274%.
Regarding `O=C(c1ccc(Cc2cccc(C(F)(F)F)c2)cc1)N1CC(N[C@H]2CCN(C(=O)c3ccccc3)C2)C1` [Cpd 126, (3S)-1-(Phenylcarbonyl)-N-[1-({4-[3-(trifluoromethyl)benzyl]phenyl}carbonyl)azetidin-3-yl]pyrrolidin-3-amine], in assay [1], the IC50 was below 0.005 µM. Moreover, the “Rat Brain 2AG % VehCntrl (%) @1 μM” value in assay [2] stood at 715%.
`Cn1cc(-c2cccc(C(F)(F)F)c2)c2ccc(C(=O)N3CC(N[C@H]4CCN(C(=O)c5cscn5)C4)C3)cc21` [Cpd 164, (3S)-N-[1-({1-Methyl-3-[3-(trifluoromethyl)phenyl]-1H-indol-6-yl}carbonyl)azetidin-3-yl]-1-(1,3-thiazol-4-ylcarbonyl)pyrrolidin-3-amine]: the IC50 in assay [1] was 0.0251 µM. The “Rat Brain 2AG % VehCntrl (%) @1 μM” value in assay [2] is 458%.
On to `Cc1c(C(=O)N2CC(N[C@H]3CCN(C(=O)c4nccs4)C3)C2)sc2cc(F)ccc12` [Cpd 87, (3S)-N-{1-[(6-Fluoro-3-methyl-1-benzothiophen-2-yl)carbonyl]azetidin-3-yl}-1-(1,3-thiazol-2-ylcarbonyl)pyrrolidin-3-amine], for which, in assay [1], the half-maximal inhibitory concentration (IC50) was determined as 0.0341 µM. Further, the “Rat Brain 2AG % VehCntrl (%) @1 μM” value in assay [2] came to 385%.
For the molecule `Cn1cc(-c2ccccc2)c2ccc(C(=O)N3CC(N[C@H]4CCN(C(=O)c5nccs5)C4)C3)cc21` [Cpd 169, (3S)-N-{1-[(1-Methyl-3-phenyl-1H-indol-6-yl)carbonyl]azetidin-3-yl}-1-(1,3-thiazol-2-ylcarbonyl)pyrrolidin-3-amine], in assay [1], the IC50 worked out at 0.0139 µM. In addition, the “Rat Brain 2AG % VehCntrl (%) @1 μM” value in assay [2] was 482%.
As to `O=C(c1ccc2c(-c3ccccc3)c[nH]c2c1)N1CC(N[C@H]2CCN(C(=O)c3nccs3)C2)C1` [Cpd 187, (3S)-N-{1-[(3-Phenyl-1H-indol-6-yl)carbonyl]azetidin-3-yl}-1-(1,3-thiazol-2-ylcarbonyl)pyrrolidin-3-amine], in assay [1], the half-inhibitory concentration (IC50) is below 0.005 µM. Also, the “Rat Brain 2AG % VehCntrl (%) @1 μM” value in assay [2] was found to be 242%.
Turning to `O=C(c1cscn1)N1CC[C@H](NC2CN(C(=O)c3cc4ccc(-c5ccccc5)cc4s3)C2)C1` [Cpd 124, (3S)-N-{1-[(6-Phenyl-1-benzothiophen-2-yl)carbonyl]azetidin-3-yl}-1-(1,3-thiazol-4-ylcarbonyl)pyrrolidin-3-amine], in assay [1], the 50% inhibitory concentration (IC50) amounted to 0.006 µM. Besides, in assay [2], the “Rat Brain 2AG % VehCntrl (%) @1 μM” value is on record as 227%.
`O=C(c1ccc2c(ccn2-c2ccc(F)cc2)c1)N1CC(N[C@H]2CCN(C(=O)c3cscn3)C2)C1` [Cpd 160, (3S)-N-(1-{[1-(4-Fluorophenyl)-1H-indol-5-yl]carbonyl}azetidin-3-yl)-1-(1,3-thiazol-4-ylcarbonyl)pyrrolidin-3-amine]: the IC50 in assay [1] was determined as 0.0124 µM. Moreover, the “Rat Brain 2AG % VehCntrl (%) @1 μM” value in assay [2] was determined as 338%.
In the same order, the values of `O=C(c1nccs1)N1CC[C@H](NC2CN(C(=O)c3ccc(-c4cccc(C(F)(F)F)c4)cc3F)C2)C1` [Cpd 116, (3S)-N-(1-{[3-Fluoro-3′-(trifluoromethyl)biphenyl-4-yl]carbonyl}azetidin-3-yl)-1-(1,3-thiazol-2-ylcarbonyl)pyrrolidin-3-amine] are below 0.005 µM and 733%.
For `Cn1cc(-c2ccc(C(F)(F)F)cc2)c2ccc(C(=O)N3CC(N[C@H]4CCN(C(=O)c5cscn5)C4)C3)cc21` [Cpd 165, (3S)-N-[1-({1-Methyl-3-[4-(trifluoromethyl)phenyl]-1H-indol-6-yl}carbonyl)azetidin-3-yl]-1-(1,3-thiazol-4-ylcarbonyl)pyrrolidin-3-amine], the IC50 in assay [1] was found to be 0.0445 µM. Further, the “Rat Brain 2AG % VehCntrl (%) @1 μM” value in assay [2] came out at 228%.
As for `O=C(c1nccs1)N1CC[C@H](NC2CN(C(=O)c3sc4cc(Br)ccc4c3Cl)C2)C1` [Cpd 140, (3S)-N-{1-[(6-Bromo-3-chloro-1-benzothiophen-2-yl)carbonyl]azetidin-3-yl}-1-(1,3-thiazol-2-ylcarbonyl)pyrrolidin-3-amine], the half-inhibitory concentration (IC50) in assay [1] stood at 0.0124 µM. Also, the “Rat Brain 2AG % VehCntrl (%) @1 μM” value in assay [2] is given as 742%.
As for `O=C(c1cc2cc(-c3ccccc3)ccc2s1)N1CC(N[C@H]2CCN(C(=O)c3nccs3)C2)C1` [Cpd 129, (3S)-N-{1-[(5-Phenyl-1-benzothiophen-2-yl)carbonyl]azetidin-3-yl}-1-(1,3-thiazol-2-ylcarbonyl)pyrrolidin-3-amine], the 50% inhibitory concentration (IC50) in assay [1] is below 0.005 µM. The “Rat Brain 2AG % VehCntrl (%) @1 μM” value in assay [2] is given as 590%.
In the same order, the values of `O=C(c1cc2cc(-c3cccc(C(F)(F)F)c3)ccc2s1)N1CC(N[C@H]2CCN(C(=O)c3nccs3)C2)C1` [Cpd 132, (3S)-1-(1,3-Thiazol-2-ylcarbonyl)-N-[1-({5-[3-(trifluoromethyl)phenyl]-1-benzothiophen-2-yl}carbonyl)azetidin-3-yl]pyrrolidin-3-amine] are below 0.005 µM and 1233%.
For `O=C(c1nccs1)N1CC[C@H](NC2CN(C(=O)c3sc4cc(-c5ccccc5)ccc4c3C(F)(F)F)C2)C1` [Cpd 208, (3S)-N-(1-{[6-Phenyl-3-(trifluoromethyl)-1-benzothiophen-2-yl]carbonyl}azetidin-3-yl)-1-(1,3-thiazol-2-ylcarbonyl)pyrrolidin-3-amine], in assay [1], the IC50 came out at 0.0134 µM. For the same molecule, the “Rat Brain 2AG % VehCntrl (%) @1 μM” value in assay [2] is reported as 359%.
For `Cc1c(C(=O)N2CC(N[C@H]3CCN(C(=O)c4ccccc4)C3)C2)sc2cc(C(F)(F)F)ccc12` [Cpd 80, (3S)-N-(1-{[3-Methyl-6-(trifluoromethyl)-1-benzothiophen-2-yl]carbonyl}azetidin-3-yl)-1-(phenylcarbonyl)pyrrolidin-3-amine], the IC50 in assay [1] stood at 0.0226 µM. Further, the “Rat Brain 2AG % VehCntrl (%) @1 μM” value in assay [2] came out at 174%.
Turning to `O=C(c1ccc2c(-c3ccccc3)c[nH]c2c1)N1CC(N[C@H]2CCN(C(=O)c3cscn3)C2)C1` [Cpd 188, (3S)-N-{1-[(3-Phenyl-1H-indol-6-yl)carbonyl]azetidin-3-yl}-1-(1,3-thiazol-4-ylcarbonyl)pyrrolidin-3-amine], the IC50 in assay [1] was 0.0749 µM. Besides, the “Rat Brain 2AG % VehCntrl (%) @1 μM” value in assay [2] was found to be 140%.
Consider `Cn1cc(-c2ccc(F)cc2)c2ccc(C(=O)N3CC(N[C@H]4CCN(C(=O)c5nccs5)C4)C3)cc21` [Cpd 192, (3S)-N-(1-{[3-(4-Fluorophenyl)-1-methyl-1H-indol-6-yl]carbonyl}azetidin-3-yl)-1-(1,3-thiazol-2-ylcarbonyl)pyrrolidin-3-amine], for which, in assay [1], the IC50 was below 0.005 µM. Also, the “Rat Brain 2AG % VehCntrl (%) @1 μM” value in assay [2] is recorded as 374%.

(Values after patent US8748417B2, “Amino-pyrrolidine-azetidine diamides as monoacylglycerol lipase inhibitors” (Janssen Pharmaceutica, NV, priority 2010, dated 2014).)
